Reference: patent US8394952B2 (Vertex Pharmaceuticals Incorporated, priority 2006, dated 2013)

What follows are compounds tested against Plk1 (Homo sapiens, UniProt P53350) (assay: biochemical).
Chain of Plk1 (P53350 20-338): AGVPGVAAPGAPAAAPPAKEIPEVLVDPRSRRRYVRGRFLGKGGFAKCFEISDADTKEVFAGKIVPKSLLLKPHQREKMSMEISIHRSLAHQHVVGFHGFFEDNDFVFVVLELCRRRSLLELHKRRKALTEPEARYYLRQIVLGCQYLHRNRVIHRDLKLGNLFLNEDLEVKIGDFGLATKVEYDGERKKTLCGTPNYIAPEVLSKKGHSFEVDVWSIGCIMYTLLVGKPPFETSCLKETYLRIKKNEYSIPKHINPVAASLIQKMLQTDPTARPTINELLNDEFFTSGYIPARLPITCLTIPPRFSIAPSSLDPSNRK

Row | SMILES | Ki [nM]
1 | CN1C(=O)C(C)(C)CN(C2CCCC2)c2nc(Nc3cccc4cn(C)nc34)ncc21 [Compound I-91, 2-(2-methyl-2H-indazol-7-ylamino)-9-cyclopentyl-8,9-dihydro-5,7,7-trimethyl-5H-pyrimido[4,5-b][1,4]diazepin-6(7H)-one] | 10 to 100
2 | CNC(=O)c1ccc(Nc2ncc3c(n2)N(c2ccccc2)CC(C)(C)C(=O)N3C)c(OC)c1 [Compound I-40, 4-(6,7,8,9-tetrahydro-5,7,7-trimethyl-6-oxo-9-phenyl-5H-pyrimido[4,5-b][1,4]diazepin-2-ylamino)-3-methoxy-N-methylbenzamide] | 10 to 100
3 | COCC(=O)Nc1cccc(Nc2ncc3c(n2)N(C2CCCC2)CC(C)(C)C(=O)N3C)c1 [Compound I-147, N-(3-(9-Cyclopentyl-6,7,8,9-tetrahydro-5,7,7-trimethyl-6-oxo-5H-pyrimido[4,5-b][1,4]diazepin-2-ylamino)phenyl)-2-methoxyacetamide] | 10 to 100
4 | CN1C(=O)C(C)(C)CN(C2CCCC2)c2nc(Nc3ccc4ncsc4c3)ncc21 [Compound I-44, 2-(benzo[d]thiazol-6-ylamino)-9-cyclopentyl-8,9-dihydro-5,7,7-trimethyl-5H-pyrimido[4,5-b][1,4]diazepin-6(7H)-one] | 10 to 100
5 | CNC(=O)c1ccc(Nc2ncc3c(n2)N(C2CC2)CC(C)(C)C(=O)N3C)c(OC)c1 [Compound I-30, 4-(9-cyclopropyl-6,7,8,9-tetrahydro-5,7,7-trimethyl-6-oxo-5H-pyrimido[4,5-b][1,4]diazepin-2-ylamino)-3-methoxy-N-methylbenzamide] | 10 to 100
6 | CN1C(=O)C(C)(C)CN(C2CCCC2)c2nc(Nc3ccc4[nH][nH]c(=O)c4c3)ncc21 [Compound I-109, 2-(2,3-dihydro-3-oxo-1H-indazol-5-ylamino)-9-cyclopentyl-8,9-dihydro-5,7,7-trimethyl-5H-pyrimido[4,5-b][1,4]diazepin-6(7H)-one] | 10 to 100
7 | CN1C(=O)C(C)(C)CN(C2CCCC2)c2nc(Nc3cccc4cn[nH]c34)ncc21 [Compound I-89, 2-(1H-indazo-7-ylamino)-9-cyclopentyl-8,9-dihydro-5,7,7-trimethyl-5H-pyrimido[4,5-b][1,4]diazepin-6(7H)-one] | 10 to 100
8 | COc1cc(C(=O)Nc2ccncn2)ccc1Nc1ncc2c(n1)N(C1CCCC1)CC(C)(C)C(=O)N2C [Compound I-222, 4-(9-cyclopentyl-5,7,7-trimethyl-6-oxo-6,7,8,9-tetrahydro-5H-pyrimido[4,5-b][1,4]diazepin-2-ylamino)-3-methoxy-N-(pyrimidin-4-yl)benzamide] | < 10
9 | COc1cc(C(=O)Nc2cccnc2)ccc1Nc1ncc2c(n1)N(C1CCCC1)CC(C)(C)C(=O)N2C [Compound I-207, 4-(9-cyclopentyl-5,7,7-trimethyl-6-oxo-6,7,8,9-tetrahydro-5H-pyrimido[4,5-b][1,4]diazepin-2-ylamino)-3-methoxy-N-(pyridin-3-yl)benzamide] | < 10
10 | CNC(=O)c1ccc(Nc2ncc3c(n2)N(C2CCN(C)CC2)CC(C)(C)C(=O)N3C)c(OC)c1 [Compound I-97, 4-(6,7,8,9-tetrahydro-5,7,7-trimethyl-9-((R)-1-methylpiperidine-4-yl)-6-oxo-5H-pyrimido[4,5-b][1,4]diazepin-2-ylamino)-3-methoxy-N-methylbenzamide] | 10 to 100
11 | CNC(=O)c1ccc(Nc2ncc3c(n2)N([C@@H]2CCCN(C)C2)CC(C)(C)C(=O)N3C)c(OC)c1 [Compound I-96, 4-(6,7,8,9-tetrahydro-5,7,7-trimethyl-9-((R)-1-methylpiperidine-3-yl)-6-oxo-5H-pyrimido[4,5-b][1,4]diazepin-2-ylamino)-3-methoxy-N-methylbenzamide] | < 10
12 | COc1cc(C(=O)NCC(F)(F)F)ccc1Nc1ncc2c(n1)N(C1CCCC1)CC(C)(C)C(=O)N2C [Compound I-105] | < 10
13 | CNC(=O)c1ccc(Nc2ncc3c(n2)N(C2CCCC2)CC(C)(C)c2nncn2-3)c(OC)c1 [Compound I-36, 4-(6-Cyclopentyl-4,4-dimethyl-5,6-dihydro-4H-2,3,6,7,9,10b-hexaazabenzo[e]azulen-8-ylamino)-3-methoxy-N-methylbenzamide] | < 10
14 | COc1cc(C(=O)NC2CCOCC2)ccc1Nc1ncc2c(n1)N(C1CCCC1)C[C@@H](C)C(=O)N2C [Compound I-182, (R)-4-(9-cyclopentyl-5,7-dimethyl-6-oxo-6,7,8,9-tetrahydro-5H-pyrimido[4,5-b][1,4]diazepin-2-ylamino)-3-methoxy-N-(tetrahydro-2H-pyran-4-yl)benzamide] | < 10
15 | COc1ccc(NC(C)=O)cc1Nc1ncc2c(n1)N(C1CCCC1)CC(C)(C)C(=O)N2C [Compound I-158, N-(3-(9-cyclopentyl-6,7,8,9-tetrahydro-5,7,7-trimethyl-6-oxo-5H-pyrimido[4,5-b][1,4]diazepin-2-ylamino)-4-methoxyphenyl)acetamide] | < 10
16 | COc1cc(C(=O)N2CCOCC2)ccc1Nc1ncc2c(n1)N(C1CCCC1)CC(C)(C)C(=O)N2C [Compound I-199, 9-cyclopentyl-2-(2-methoxy-4-(morpholine-4-carbonyl)phenylamino)-5,7,7-trimethyl-8,9-dihydro-5H-pyrimido[4,5-b][1,4]diazepin-6(7H)-one] | < 10
17 | CN1C(=O)C(C)(C)CN(C2CCCC2)c2nc(Nc3cccc(N)c3)ncc21 [Compound I-116, 2-(3-aminophenylamino)-9-cyclopentyl-8,9-dihydro-5,7,7-trimethyl-5H-pyrimido[4,5-b][1,4]diazepin-6(7H)-one] | 10 to 100
18 | COc1cc(C(=O)O)ccc1Nc1ncc2c(n1)N(C1CCCC1)CC(C)C(=O)N2C (stereo not drawn) [Compound I-10, 4-(9-cyclopentyl-6,7,8,9-tetrahydro-5,7-dimethyl-6-oxo-5H-pyrimido[4,5-b][1,4]diazepin-2-ylamino)-3-methoxybenzoic acid] | 10 to 100
19 | COc1cc(C(=O)Nc2ccccn2)ccc1Nc1ncc2c(n1)N(C1CCCC1)CC(C)(C)C(=O)N2C [Compound I-221, 4-(9-cyclopentyl-5,7,7-trimethyl-6-oxo-6,7,8,9-tetrahydro-5H-pyrimido[4,5-b][1,4]diazepin-2-ylamino)-3-methoxy-N-(pyridin-2-yl)benzamide] | < 10

More lines, now with the values ahead:

Row | Ki [nM] | SMILES
20 | < 10 | COc1cc(C(=O)N[C@H]2CCOC2)ccc1Nc1ncc2c(n1)N(C1CCCC1)CC1(CC1)C(=O)N2C [Compound I-179, (S)-4-(9′-cyclopentyl-5′-methyl-6′-oxo-5′,6′,8′,9′-tetrahydrospiro[cyclopropane-1,7′-pyrimido[4,5-b][1,4]diazepine]-2′-ylamino)-3-methoxy-N-(tetrahydrofuran-3-yl)benzamide]
21 | < 10 | COc1cc(C(=O)NC2CCCC2)ccc1Nc1ncc2c(n1)N(C1CCCC1)CC(C)(C)C(=O)N2C [Compound I-129, 4-(9-cyclopentyl-6,7,8,9-tetrahydro-5,7,7-trimethyl-6-oxo-5H-pyrimido[4,5-b][1,4]diazepin-2-ylamino)-N-cyclopentyl-3-methoxybenzamide]
22 | < 10 | COc1cc(C(=O)N2CC[C@H](F)C2)ccc1Nc1ncc2c(n1)N(C1CCCC1)CC(C)(C)C(=O)N2C [Compound I-32, 9-Cyclopentyl-2-[4-((S)-3-fluoro-pyrrolidine-1-carbonyl)-2-methoxyphenylamino]-5,7,7-trimethyl-5,7,8,9-tetrahydropyrimido[4,5-b][1,4]diazepin-6-one]
23 | < 10 | COc1cc(C(=O)NC2CCN(C)CC2)ccc1Nc1ncc2c(n1)N(C1CCCC1)CC1(CCC1)C(=O)N2C [Compound I-64, 4-(9′-cyclopentyl-5′-methyl-6′-oxo-5′,6′,8′,9′-tetrahydrospiro[cyclobutane-1,7′-pyrimido[4,5-b][1,4]diazepine]-2′-ylamino)-3-methoxy-N-(1-methylpiperidin-4-yl)benzamide]
24 | < 10 | COc1cc(C(=O)NC2CCC2)ccc1Nc1ncc2c(n1)N(C1CCCC1)CC(C)(C)C(=O)N2C [Compound I-94, 4-(9-cyclopentyl-6,7,8,9-tetrahydro-5,7,7-trimethyl-6-oxo-5H-pyrimido[4,5-b][1,4]diazepin-2-ylamino)-N-cyclobutyl-3-methoxybenzamide]
25 | < 10 | COc1cc(C(=O)Nc2ccncc2C(F)(F)F)ccc1Nc1ncc2c(n1)N(C1CCCC1)CC(C)(C)C(=O)N2C [Compound I-234]
26 | < 10 | COc1cc(C(=O)N[C@H]2CC[C@H](O)CC2)ccc1Nc1ncc2c(n1)N(C1CCCC1)CC(C)(C)C(=O)N2C [Compound I-204, 4-(9-cyclopentyl-5,7,7-trimethyl-6-oxo-6,7,8,9-tetrahydro-5H-pyrimido[4,5-b][1,4]diazepin-2-ylamino)-N-((1R,4R)-4-hydroxycyclohexyl)-3-methoxybenzamide]
27 | < 10 | COc1cc(C(=O)Nc2ccncc2)ccc1Nc1ncc2c(n1)N(C1CCCC1)CC(C)(C)C(=O)N2C [Compound I-24, 4-(9-cyclopentyl-6,7,8,9-tetrahydro-5,7,7-trimethyl-6-oxo-5H-pyrimido[4,5-b][1,4]diazepin-2-ylamino)-3-methoxy-N-(pyridin-4-yl)benzamide]
28 | < 10 | COc1cc(C(=O)Nc2ncc(C)s2)ccc1Nc1ncc2c(n1)N(C1CCCC1)CC(C)(C)C(=O)N2C [Compound I-236, 4-(9-cyclopentyl-5,7,7-trimethyl-6-oxo-6,7,8,9-tetrahydro-5H-pyrimido[4,5-b][1,4]diazepin-2-ylamino)-3-methoxy-N-(5-methylthiazol-2-yl)benzamide]
29 | < 10 | COc1cc(C(=O)NCc2cccnc2)ccc1Nc1ncc2c(n1)N(C1CCCC1)CC(C)(C)C(=O)N2C [Compound I-202, 4-(9-cyclopentyl-5,7,7-trimethyl-6-oxo-6,7,8,9-tetrahydro-5H-pyrimido[4,5-b][1,4]diazepin-2-ylamino)-3-methoxy-N-(pyridin-3-ylmethyl)benzamide]
30 | < 10 | COc1cc(C(=O)NC2CCOCC2)ccc1Nc1ncc2c(n1)N(C1CCCC1)C[C@H](C)C(=O)N2C [Compound I-174, 4-((S)-9-cyclopentyl-6,7,8,9-tetrahydro-5,7-dimethyl-6-oxo-5H-pyrimido[4,5-b][1,4]diazepin-2-ylamino)-N-(tetrahydro-2H-pyran-4-yl)-3-methoxybenzamide]
